# From patent publication US6303568A, “Therapeutic antimicrobial polypeptides, their use and methods for preparation” (Helix Biomedix, Inc., priority 1996, dated 2001)
# Like-named read-outs stand apart in the source and are kept apart here. Ends that are not written are not given here.
# What was measured:
# E. coli E/2/64 = test: In vitro exposure and plate count, E. coli (Example 3); assay type: cell-based
# Experimental: A known number of viable microorganisms were exposed to a known concentration of the antimicrobial agent for a given time period. Following exposure, the undiluted or diluted microorganisms were plated on solid growth media, e.g., agar plates. The plates were incubated and numbers of organisms determined by making plate counts. Comparisons are then made with the non-treated bacteria for evidence of inhibition, mortality, or both. The following Examples give detailed experimental procedures and results for several microorganisms and antimicrobial agents. […] The E. coli is collected in late log phase growth at which the majority of cells are in growth phase at 18-24 hours. […] The mixtures were incubated at room temperature for 1 hour, and then at 37° C. for 30 minutes. The mixtures were diluted to 10^-1 or 10^-3 with serial dilutions at 7 drops per dilution (10 microliters per drop), plated on agar growth media, which is a tryptose agar. The plates were incubated for 3 days at 37° C. Plate counts were then made and the results given below.
# Brucella abortus [1] = assay type: in vivo; conditions: 0.176 milligrams/day intramuscularly for 4 days from 12th day post infection; sacrificed 16th day post infection
# Brucella abortus [2] = assay type: cell-based
# [3] = BALB/C mice
# Experimental: The safety of antimicrobial agents according to the present invention was tested according to standard procedures in animal studies.
# Six BALB/C mice, 4 to 5 weeks of age, maintained on commercial rodent ration fed ad libidum and in general good health were each inoculated with 1.76 milligrams/day of cecropin C-37 in balanced salt solution intramuscularly for 4 consecutive days. No other change was made in diet or conditions. […] At the end of the fourth day, three of the […] were humanely destroyed and examined. After 30 days, 3 of the 6 were given an additional 1.76 milligrams each.
# The remaining mice were all killed 7 days after the last inoculation.
# Following the procedure above in Part A, three BALB/C mice were given 110 milligrams/kilogram of body weight of cecropin C-37 injected intramuscularly in balanced salt solution for 6 days. White cell counts and differentials were performed on a daily basis. Ten days after the last inoculation, the mice were again injected intramuscularly with 110 milligrams/kilogram of body weight with Cecropin C-37. […] All three mice were killed 7 days after the final inoculation and tissues were examined.
compound,measurement,setting,value
"lysozyme: lysozyme, tested by itself and combined with cecropins",Effect on E. coli (growth),"E. coli E/2/64; lysozyme itself at 10 micrograms, 1 milligram, and 10 milligrams per milliliter, 10^-1 and 10^-3 dilutions",positive growth
"CN(C)[C@@H]1C(O)=C(C(N)=O)C(=O)[C@@]2(O)C(O)=C3C(=O)c4c(O)cccc4[C@@](C)(O)[C@H]3C[C@@H]12 [Tetracycline, tetracycline]",Concentration of Brucella abortus in BALB/c Mouse Spleen Tissue After 4 Days Treatment,Brucella abortus [1],4.4 × 10^3 per gram of spleen
KWKVFKKIEKMGRNIRNGIVKAGPAIAVLGEAKAL-NH2 [Cecropin B],Effect on E. coli (growth),E. coli E/2/64; 5 × 10^-6 molar,no growth
same,Effect on E. coli (growth),E. coli E/2/64; lower concentrations of 1 nanomolar and 1 micromolar,positive E. coli growth
same,Effect on Brucella abortus (growth),Brucella abortus [2],no growth
MPKWKVFKKIEKVGRNIRNGIVKAGPAIAVLGEAKAL-NH2 [Cecropin C-37],IgG antibody to the antimicrobial agent,[3]; 1.76 milligrams/day intramuscularly,None of these mice produced detectable levels
same,adverse reactions,"[3]; 1.76 milligrams/day intramuscularly for 4 consecutive days, observed twice daily",no adverse reactions
same,gross pathological changes in organs and at injection sites,"[3]; 1.76 milligrams/day intramuscularly, killed 7 days after last inoculation",no gross pathological changes
same,Cecropin C-37 antibodies,[3]; 110 milligrams/kilogram intramuscularly,No Cecropin C-37 antibodies were detected
same,adverse effects,"[3]; 110 milligrams/kilogram intramuscularly for 6 days, again ten days after",no adverse effects
same,tissue examination,"[3]; 110 milligrams/kilogram intramuscularly, killed 7 days after final inoculation",enlarged spleens but were otherwise unremarkable
same,adverse reactions,[3]; additional 1.76 milligrams each after 30 days,No adverse reactions
